*1 amine or outer side, *2 acyl side, *3 side chain or, on linkers, in order; H or OH if unused. Where a SMILES comes first, the peptide text is derived from it. Where no end group is shown, it is not given here. [ ]: non-standard residue; d: D form. The star is where a group is joined. Acca(2-Et,1R,2R) = CC[C@@H]1C[C@]1(N)C(=O)O; CH2(1-naphthyl) = c1ccc2c(C*)cccc2c1; Hyp = O=C(O)[C@@H]1C[C@@H](O)CN1; NMeI = CC[C@H](C)[C@H](NC)C(=O)O; AllylGly = C=CC[C@H](N)C(=O)O; Chg = N[C@H](C(=O)O)C1CCCCC1; Suc = O=C(CCC(=O)[*:2])[*:1]; Tle = CC(C)(C)[C@H](N)C(=O)O; X5 = CC(C)(C)c1ccc(C*)cc1; Nva = CCC[C@H](N)C(=O)O; X1 = c1ccc2cc(C*)ccc2c1; X4 = Brc1cc(Br)cc(C*)c1; Abu = CC[C@H](N)C(=O)O; Ac3c = NC1(C(=O)O)CC1; Boc = CC(C)(C)OC(=O)*; Bn = c1ccc(C*)cc1
These compounds were tested against T1, HCV NS3 protease type 1b/NS4A cofactor peptide (Hepatitis C virus genotype 1b, UniProt P26663) (assay: Recombinant HCV NS3 protease/NS4A cofactor peptide radiometric assay). Details: Table 1, unmarked values: NS3 protease/NS4A cofactor peptide radiometric assay; read-out: IC50.
T1 construct: recombinant HCV NS3 protease (amino acid 1027 to 1206) was cloned in the pET11d bacterial expression vector; made in house; host or cells: E. coli BL21(DE3)pLysS
Assay type: biochemical, HCV genotype 1b
Description: Recombinant HCV NS3 Protease/NS4A Cofactor Peptide Radiometric Assay.
The enzyme was stored at −80° C., thawed on ice and diluted just prior to use in the assay buffer containing the NS4A cofactor peptide.
The substrate used for the NS3 protease/NS4A cofactor peptide radiometric assay, DDIVPC-SMSYTW [SEQ. ID NO. 2], is cleaved between the cysteine and the serine residues by the enzyme. The sequence DDIVPC-SMSYTW [SEQ. ID NO. 2] corresponds to the NS5A/NS5B natural cleavage site in which the cysteine residue in P2 has been substituted for a proline. The peptide substrate DDIVPC-SMSYTW [SEQ. ID NO. […] ID NO. […] [SEQ. ID NO. 5] (molar ratio enzyme: cofactor 1:100) in the absence or presence of inhibitors. The separation of substrate from products is performed by adding avidin-coated agarose beads to the assay mixture followed by filtration. […] ID NO. 4] product found in the filtrate allows for the calculation of the percentage of substrate conversion and of the percentage of inhibition.
Tris and Tris-HCl (UltraPure) were obtained from Gibco-BRL. Glycerol (UltraPure), MES and BSA were purchased from Sigma. TCEP was obtained from Pierce, DMSO from Aldrich and NaOH from Anachemia.
Assay buffer: 50 mM Tris HCl, pH 7.5, 30% (w/v) glycerol, 1 mg/mL BSA, 1 mM TCEP (TCEP added just prior to use from a 1 M stock solution in water).
Substrate: […] [SEQ. ID NO.
ID NO. 3] (˜1 nM final concentration).
The assay was performed in a 96-well polypropylene plate from Costar. Each well contained:
20 μL substrate/tracer in assay buffer;
10 μL±inhibitor in 20% DMSO/assay buffer;
10 μL NS3 protease 1b/NS4 cofactor peptide (molar ratio 1:100).
Blank (no inhibitor and no enzyme) and control (no inhibitor) were also prepared on the same assay plate.
The enzymatic reaction was initiated by the addition of the enzyme/NS4A peptide solution and the assay mixture was incubated for 40 min at 23° C. under gentle agitation. Ten (10) μL of 0.5N NaOH were added and 10 μL 1 M MES, pH 5.8 were added to quench the enzymatic reaction.
Twenty (20) μL of avidin-coated agarose beads (purchased from Pierce) were added in a Millipore MADP N65 filtration plate. The quenched assay mixture was transferred to the filtration plate, and incubated for 60 min at 23° C. under gentle agitation.
The plates were filtered using a Millipore MultiScreen Vacuum Manifold Filtration apparatus, and 40 μL of the filtrate was transferred in an opaque 96-well plate containing 60 μL of scintillation fluid per well.
The % inhibition was calculated with the following equation:
100-[(countsinh-countsblank)/(countsctl-countsblank)×100]

T1 sequence (P26663 1027-1206, other chains not shown): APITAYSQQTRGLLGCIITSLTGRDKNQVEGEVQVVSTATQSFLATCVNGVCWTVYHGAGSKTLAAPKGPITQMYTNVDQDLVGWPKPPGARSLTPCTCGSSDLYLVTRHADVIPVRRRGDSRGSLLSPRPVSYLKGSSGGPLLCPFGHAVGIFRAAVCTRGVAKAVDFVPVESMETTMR

Compound | IC50 [µM]
CC(=O)N[C@@H](CC(=O)O)C(=O)N[C@H](CCC(=O)O)C(=O)N[C@H](C(=O)N[C@@H](CCC(=O)O)C(=O)N[C@@H](CCC(=O)O)C(=O)NC1(C(=O)O)CC1)C1CCCCC1 [compound 132] (Ac-D[dE][Chg]EE[Ac3c]-OH) | 36
CC[C@H](C)[C@H](NC(=O)[C@@H](NC(=O)[C@H](CC(=O)O)NC(C)=O)C(C)(C)C)C(=O)N[C@H](C(=O)N1CCC[C@H]1C(=O)N[C@@H](CS)C(=O)O)C(C)C [compound 108] (Ac-D[Tle]IVPC-OH) | 31
CC[C@H](C)[C@H](NC(=O)[C@@H](CCC(=O)O)NC(=O)[C@H](CC(=O)O)NC(C)=O)C(=O)N[C@H](C(=O)N1CCC[C@H]1C(=O)N[C@@H](CS)C(=O)O)C(C)C [compound 105] (Ac-D[dE]IVPC-OH) | 1.5
CC[C@H](NC(=O)[C@@H]1CCCN1C(=O)[C@@H](NC(=O)[C@@H](NC(=O)[C@H](CC(=O)O)NC(=O)[C@H](CC(=O)O)NC(C)=O)[C@@H](C)CC)C(C)C)C(=O)O [compound 122] (Ac-DDIVP[Abu]-OH) | 315
Ac-DDIVIC [compound 119] | 90
Ac-EDIVPC [compound 102] | 59
CCC[C@H](NC(=O)[C@@H]1CCCN1C(=O)[C@@H](NC(=O)[C@@H](NC(=O)[C@@H](CCC(=O)O)NC(=O)[C@H](CC(=O)O)NC(C)=O)[C@@H](C)CC)C(C)C)C(=O)O [compound 128] (Ac-D[dE]IVP[Nva]-OH) | 7.4
Ac-DDIVPC [compound 101] | 46
CC(=O)N[C@@H](CC(=O)O)C(=O)N[C@@H](CC(=O)O)C(=O)N[C@H](C(=O)N[C@H](C(=O)N1CCC[C@H]1C(=O)N[C@@H](CS)C(=O)O)C(C)C)C(C)(C)C [compound 111] (Ac-DD[Tle]VPC-OH) | 79
C=CC[C@H](NC(=O)[C@@H]1CCCN1C(=O)[C@@H](NC(=O)[C@@H](NC(=O)[C@H](CC(=O)O)NC(=O)[C@H](CC(=O)O)NC(C)=O)[C@@H](C)CC)C(C)C)C(=O)O [compound 124] (Ac-DDIVP[AllylGly]-OH) | 210
CC(=O)N[C@@H](CC(=O)O)C(=O)N[C@@H](CCC(=O)O)C(=O)N[C@H](C(=O)N[C@@H](CCC(=O)O)C(=O)N[C@@H](CCC(=O)O)C(=O)N[C@@H](CS)C(=O)O)C1CCCCC1 [compound 131] (Ac-DE[Chg]EEC-OH) | 24
CC[C@H](C)[C@H](NC(=O)[C@H](CC(=O)O)NC(=O)[C@H](CC(=O)O)NC(C)=O)C(=O)N[C@H](C(=O)N1CCC[C@H]1C(=O)NC1(C(=O)O)CC1)C(C)C [compound 126] (Ac-DDIVP[Ac3c]-OH) | 45
CC[C@H](C)[C@H](NC(=O)[C@H](CC(=O)O)NC(=O)[C@H](CC(=O)O)NC(C)=O)C(=O)N[C@H](C(=O)N1C[C@H](OCc2ccccc2)C[C@H]1C(=O)N[C@@H](CS)C(=O)O)C(C)C [compound 121] (Ac-DDIV[Hyp](Bn)C-OH) | 1.7

Same assay, conditions: Table 2, unmarked values: NS3 protease/NS4A cofactor peptide radiometric assay; read-out: IC50

Compound | IC50 [µM]
CCC[C@H](NC(=O)[C@@H]1C[C@@H](OCc2ccc3ccccc3c2)CN1C(=O)[C@@H](NC(=O)[C@@H](NC(=O)[C@H](CC(=O)O)NC(=O)[C@H](CC(=O)O)NC(C)=O)[C@@H](C)CC)C(C)C)C(=O)O [compound 208] (Ac-DDIV[Hyp](X1)[Nva]-OH) | 0.71
CC(=O)N[C@H](C(=O)N[C@H](C(=O)N1C[C@H](OCc2ccccc2)C[C@H]1C(=O)N[C@@H](CS)C(=O)O)C(C)C)C1CCCCC1 [compound 261] (Ac-[Chg]V[Hyp](Bn)C-OH) | 28
CCC[C@H](NC(=O)[C@@H]1C[C@@H](OCc2cccc3ccccc23)CN1C(=O)[C@@H](NC(=O)[C@H]([C@@H](C)CC)N(C)C(=O)CCC(=O)O)C(C)C)C(=O)O [compound 220] (Suc-[NMeI]V[Hyp](CH2(1-naphthyl))[Nva]-OH) | 31
CCC[C@H](NC(=O)[C@@H]1C[C@@H](OCc2cccc3ccccc23)CN1C(=O)[C@@H](NC(=S)[C@@H](NC(=O)CNC(C)=O)[C@@H](C)CC)C(C)C)C(=O)O [compound 236] | 4
CCC[C@H](NC(=O)[C@@H]1C[C@@H](OCc2ccccc2)CN1C(=O)[C@@H](NC(=O)[C@@H](NC(=O)[C@H](NC(=O)[C@H](CC(=O)O)NC(C)=O)C(C)C)[C@@H](C)CC)C(C)C)C(=O)O [compound 202] (Ac-D[dV]IV[Hyp](Bn)[Nva]-OH) | 0.93
CC(=O)N[C@@H](CC(=O)O)C(=O)N[C@H](CCC(=O)O)C(=O)N[C@H](C(=O)N[C@H](C(=O)N1C[C@H](OCc2cccc3ccccc23)C[C@H]1C(=O)NC1(C(=O)O)CC1)C(C)C)C1CCCCC1 [compound 215] (Ac-D[dE][Chg]V[Hyp](CH2(1-naphthyl))[Ac3c]-OH) | 0.014
CCC[C@H](NC(=O)[C@@H]1C[C@@H](OCc2cccc3ccccc23)CN1C(=O)[C@@H](NC(=O)[C@@H](NC(C)=O)C1CCCCC1)C(C)C)C(=O)O [compound 252] (Ac-[Chg]V[Hyp](CH2(1-naphthyl))[Nva]-OH) | 20
CC(=O)N[C@H](C(=O)N[C@H](C(=O)N1C[C@H](Oc2cccc(Br)c2)C[C@H]1C(=O)NC1(C(=O)O)CC1)C(C)C)C1CCCCC1 [compound 240] | 42
CC(=O)N[C@H](C(=O)N[C@H](C(=O)N1C[C@H](OCc2cc(Br)cc(Br)c2)C[C@H]1C(=O)NC1(C(=O)O)CC1)C(C)C)C1CCCCC1 [compound 272] (Ac-[Chg]V[Hyp](X4)[Ac3c]-OH) | 27
CCC[C@H](NC(=O)[C@@H]1C[C@@H](OCc2ccc(C(C)(C)C)cc2)CN1C(=O)[C@@H](NC(=O)[C@@H](NC(=O)[C@H](CC(=O)O)NC(=O)[C@H](CC(=O)O)NC(C)=O)[C@@H](C)CC)C(C)C)C(=O)O [compound 209] (Ac-DDIV[Hyp](X5)[Nva]-OH) | 2.6
CC(=O)N[C@H](C(=O)N[C@H](C(=O)N1C[C@H](Oc2ccccc2Br)C[C@H]1C(=O)NC1(C(=O)O)CC1)C(C)C)C1CCCCC1 [compound 239] | 27
CC[C@H](C)[C@H](NC(=O)[C@H](NC(=O)[C@H](CC(=O)O)NC(C)=O)C(C)C)C(=O)N[C@H](C(=O)N1CCC[C@H]1C(=O)N[C@@H](CS)C(=O)O)C(C)C [compound 274] (Ac-D[dV]IVPC-OH) | 7.6
CCC[C@H](NC(=O)[C@@H]1C[C@@H](OCc2cccc3ccccc23)CN1C(=O)[C@@H](NC(=O)[C@@H](NC(=O)CCC(=O)O)[C@@H](C)CC)C(C)C)C(=O)O [compound 221] (Suc-IV[Hyp](CH2(1-naphthyl))[Nva]-OH) | 22
CCC[C@H](NC(=O)[C@@H]1CCCN1C(=O)[C@@H](NC(=O)[C@@H](NC(=O)[C@H](CC(=O)O)NC(=O)[C@H](CC(=O)O)NC(C)=O)[C@@H](C)CC)C(C)C)C(=O)O (single isomer, unassigned) [compound 273] | 17.5
CC(C)(C)OC(=O)N[C@H](C(=O)N[C@H](C(=O)N1C[C@H](OCc2cccc3ccccc23)C[C@H]1C(=O)NC1(C(=O)O)CC1)C1CCCCC1)C1CCCCC1 [compound 235] (Boc-[Chg][Chg][Hyp](CH2(1-naphthyl))[Ac3c]-OH) | 12
CCC[C@H](NC(=O)[C@@H]1C[C@@H](OCc2ccccc2)CN1C(=O)[C@@H](NC(=O)[C@@H](NC(=O)[C@H](CC(=O)O)NC(=O)[C@H](CC(=O)O)NC(C)=O)[C@@H](C)CC)C(C)C)C(=O)O [compound 201] (Ac-DDIV[Hyp](Bn)[Nva]-OH) | 7.2
CCC[C@H](NC(=O)[C@@H]1C[C@@H](OCc2cccc3ccccc23)CN1C(=O)[C@@H](NC(=O)[C@@H](NC(=O)[C@H](CC(=O)O)NC(C)=O)[C@@H](C)CC)C(C)C)C(=O)O [compound 219] (Ac-DIV[Hyp](CH2(1-naphthyl))[Nva]-OH) | 2.3

Same assay, conditions: Table 5; first line of the cell; NS3 protease/NS4A cofactor peptide radiometric assay (Example 38); read-out: IC50

Compound | IC50 [µM]
CC[C@@H]1C[C@]1(NC(=O)[C@@H]1C[C@@H](OCc2ccccc2)CN1C(=O)[C@@H](NC(=O)[C@@H](NC(=O)[C@@H](CCC(=O)O)NC(=O)[C@H](CC(=O)O)NC(C)=O)[C@@H](C)CC)C(C)C)C(=O)O [compound 517] (Ac-D[dE]IV[Hyp](Bn)[Acca(2-Et,1R,2R)]-OH) | 0.075

Same assay, conditions: text b180, values of Table 5; 1R,2R versus 1S,2S isomer at P1; read-out: IC50

Compound | IC50 [µM]
CC[C@H]1C[C@@]1(NC(=O)[C@@H]1C[C@@H](OCc2cccc3ccccc23)CN1C(=O)[C@@H](NC(=O)[C@@H](NC(C)=O)C1CCCCC1)C(C)C)C(=O)O [compound 514] | 27.5
